# Columns and labels:
# Type in all cases: cell-based, human
# VMM1 cells = experiment: Rereplication by propidium iodide staining and FACS
# Description: (§1) The effects of pevonedistat, vemurafenib, and/or silencing of various cell cycle-associated proteins by siRNA on cell cycle distribution and rereplication were assessed by propidium iodide staining and flow cytometry of asynchronous melanoma cultures. Synchronization of cells was not employed to avoid bias and to be able to measure the impact of these perturbations on proliferating cancer cells. Briefly, asynchronous melanoma cell lines were treated with pevonedistat or vemurafenib, or transfected with si-CDT1, si-CDT2, si-SET8, si-p21, sigeminin, si-EMI1, or si-GL2 for a time ranging from 24 to 96 hours. Cells were washed with cold PBS, harvested, and fixed in 70% (v/v) ethanol. Cells were subsequently treated with 20 μg of DNase-free RNase and stained with propidium iodide according to instructions of the manufacturer. Samples were analyzed on a FACSCAN™ (Becton, Dickinson and Company, Franklin Lakes, N.J., United States of America) and G0-G1, S, and G2-M fractions were segmented, and apoptotic (sub-G1 DNA content) and rereplicating (>G2/M DNA content) fractions were determined using FLOWJO® (FLOWJO, LLC, Ashland, Oreg., United States of America) and ModFit (Verity Software House, Topsham, Me., United States of America) software.
# DM13 cells = experiment: as above
# Description: as §1
# VMM18 cells = experiment: as above; conditions: VMM18, 1 μM pevonedistat
# Description: as §1
# SK-MEL-28 cells = experiment: as above; conditions: SK-MEL-28, 1 μM pevonedistat
# Description: as §1
# VMM39 cells = experiment: as above; conditions: VMM39, 1 μM pevonedistat
# Description: as §1
# SLM2 melanoma cells = experiment: as above
# Description: as §1
# DM331 cells = experiment: as above; conditions: DM331, 1 μM pevonedistat
# Description: as §1
# DM93 cells = experiment: Senescence-associated β-galactosidase assay; conditions: DM93, pevonedistat, as early as 48 hours post-treatment
# Description: Senescence was monitored using β-galactosidase (β-gal) staining. Following the various treatments, cells were washed twice with PBS, fixed with 2% formaldehyde/0.2% gluteraldehyde in PBS for 15 minutes at room temperature, and washed twice with PBS. The cells were stained with fresh X-Gal solution (1 mg/ml X-gal, 40 mM C6H8O7.H2O, 5 mM K3Fe(CN)6, 5 mM K4Fe(CN)6.3H2O, 150 mM NaCl, and 2 mM MgCl2.6H2O in PBS) for 3-12 hours at 37° C. in the dark. Cells were washed three times in PBS and fixed with 100% methanol for 5 minutes at room temperature. Bright field blue color images were taken with an AMG EVOS® XL Core Imager/camera microscope (Life Technologies, Inc., Carlsbad, Calif., United States of America) counting at least 100 cells from at least 3 fields.
structure (smiles),measurement,setting,value
"NS(=O)(=O)OCC1CC(n2ccc3c(NC4CCc5ccccc54)ncnc32)CC1O [pevonedistat, ((1S,2S,4R)-4-(4-((1S)-2,3-Dihydro-H-inden-1-ylamino)-7H-pyrrolo(2,3-d)pyrimidin-7-yl)-2-hydroxycyclopentyl)methyl sulphamate]",Percent of Cells in S and G2/M at 24 hours,"VMM1 cells; VMM1, 1 μM pevonedistat, 24 hours",7.72%
same,Percent of Cells in S and G2/M at 72 Hours,"VMM1 cells; VMM1, 1 μM pevonedistat, 72 hours",30.8%
same,cells undergoing rereplication,"VMM1 cells; VMM1, 72 hours post-treatment",25%
same,Percent of Cells in S and G2/M at 24 hours,"DM13 cells; DM13, 1 μM pevonedistat, 24 hours",10.4%
same,Percent of Cells in S and G2/M at 72 Hours,"DM13 cells; DM13, 1 μM pevonedistat, 72 hours",13.7%
same,cells undergoing rereplication,"DM13 cells; DM13, 72 hours post-treatment",13.7%
same,Percent of Cells in S and G2/M at 24 hours,VMM18 cells; 24 hours,7.83%
same,Percent of Cells in S and G2/M at 72 Hours,VMM18 cells; 72 hours,16.9%
same,Percent of Cells in S and G2/M at 24 hours,SK-MEL-28 cells; 24 hours,38.7%
same,Percent of Cells in S and G2/M at 72 Hours,SK-MEL-28 cells; 72 hours,55.9%
same,Percent of Cells in S and G2/M at 24 hours,VMM39 cells; 24 hours,37.9%
same,Percent of Cells in S and G2/M at 72 Hours,VMM39 cells; 72 hours,33.8%
same,Percent of Cells in S and G2/M at 24 hours,"SLM2 melanoma cells; SLM2, 1 μM pevonedistat, 24 hours",46.8%
same,Percent of Cells in S and G2/M at 72 Hours,"SLM2 melanoma cells; SLM2, 1 μM pevonedistat, 72 hours",50.2%
same,cells with rereplication,"SLM2 melanoma cells; SLM2, 72 hours post-treatment",more than 58%
same,Percent of Cells in S and G2/M at 24 hours,DM331 cells; 24 hours,47.8%
same,Percent of Cells in S and G2/M at 72 Hours,DM331 cells; 72 hours,63.2%
same,senescence,DM93 cells,majority of cells underwent senescence

# — patent US20200397894A1, “COMPOSITIONS AND METHODS FOR TREATING CANCER” (University of Virginia Patent Foundation, priority 2016, published 2020)
